Reference: patent US12065435B2, “Compounds for the treatment of glycogen storage disorders” (HADASIT MEDICAL RESEARCH SERVICES AND DEVELOPMENT LTD., priority 2017, dated 2024)

Tests used:
[1] = test system: polyglucosan body (PB) in APBD patient-derived fibroblasts; test: High content (image-based) PAS screening assay for polyglucosan bodies; type: cell-based, human; conditions: 0, 1, 5, 10 and 50 μM
Method: All the steps of the assay were performed automatically using a Freedom Evo 150 liquid handling robot (Tecan). APBD patient-derived fibroblasts were seeded at a density of 800 cells/well in DMEM (Gibco) supplemented with 1 mM sodium pyruvate (Gibco), 1% antibiotics (Biological Industries, Israel) and 5% fetal bovine serum (Hyclone) into 384 well microclear plates (Greiner). The plates were transferred by the robotic arm (RoMa) into an automated incubator (Liconic), integrated with the robotic system, where they were incubated at 37° C. with 5% CO2. Following 24 h incubation, the medium was replaced by the robot using medium supplemented with 10 μM of each screened compound (0.1% DMSO final concentration, all prepared by the robot). The screened compounds were part of the Diverset CL collection purchased from ChemBridge (10,084 out of 50,000 molecules).
Next, these cells were cultured for another 24 h in the automated incubator, and, using the robot, washed them with PBS (Biological Industries, Israel), the cells were fixed with 4% paraformaldehyde (PFA), washed again with PBS, neutralized the previously added PFA by ammonium chloride (Sigma Aldrich), washed with PBS, permeabilized with 0.1% Triton X-100 (Sigma Aldrich), and washed again with PBS.
Following this, a robot was used to treat the fixed cells with 0.5 g/dl diastase (or amylase, Sigma Aldrich) for 5 minutes at 37° C. in the automated incubator, wash with PBS, stained with PAS (Merck), Hoechst 33342 (Sigma Aldrich) and Cell Mask Deep Red (Molecular Probes) and wash with PBS. Images of stained cells were then acquired by the IN Cell Analyzer 2000 (GE Healthcare) and analyzed using the IN Cell Investigator (GE Healthcare) applying an algorithm that quantified the PAS signal within each Cell Mask stained cell.
Images were segmented based on the Cell Mask signal which was linked with the segmentation of the nuclei, employing an empirically established sensitivity and kernel size for allowing the best segmentation. Once these nucleus-cytoplasm complex objects were selected, the software calculated the number of these objects (cell number) as well as the intensity of the PAS signal within each of them. All the assay parameters (including the acquisition exposure times, objective, and the analysis parameters) were kept constant throughout the whole screening campaign for allowing comparison of signals obtained from different batches of assay within the campaign.
The assay was performed as mentioned above, but with compound concentrations of 1, 5, 10, and 50 μM, instead of a constant concentration of 10 μM.
The discarded data was presumably associated with cells affected by toxic compounds. In the remaining data, the measured population mean PB intensity was normalized. Based on a series of images used for training, compounds were considered as positive only where following treatment the normalized PB mean intensity was at least under −1.2 z-score of the scale. Following this approach, 85 potential hits out of the 10,084 screened compounds were selected (0.84%).

[2] = test system: APBD modeling mice (Gbe^Y329S/Y329S mouse model); test: Motor parameters in APBD modeling mice; type: in vivo
Method: This study was conducted in compounds A and B according to the schemes described in Tables 8 and 9, respectively.
As vehicle control, 0.1% DMSO was used. It is noteworthy that, in order to have a statistically significant number of animals, compound A was tested in male mice and compound B in female mice (no mixed cages were allowed).
APBD is an autosomal disease with no gender related symptoms and it was presumed that this experimental design is optimal. The mode of delivery of the compounds was intravenous (IV) injection for the first month, followed by subcutaneous injection due to lack of injection space and scaring in animal tails.
Tables 8 and 9 describe the study design for compounds A and B. both compounds were tested at the age of 4 months, two months prior to disease onset, in order to assess possible prophylactic effects, and at the age of 6 months, at disease onset, in order to assess corrective effects.
The effect of compounds A and B on various motor parameters was tested every two weeks. The results are shown in herein.
The point of reference is one time point prior to treatment initiation. Please note, since animals first treated with the compounds at 6 months of age were not injected at all before that age, they could not have been compared to animals pre-injected with vehicle. Therefore, the duration of the longitudinal studies for the cohorts first treated at the age of 6 months is shorter than that of the animals first treated at 4 months of age.

recombinant human GS1 = target: T1, recombinant human GS1 (Homo sapiens, UniProt P13807); test: In vitro GS activity assay; type: biochemical; conditions: 50 μM; unpaired t-tests, p<0.05
T1 sequence (P13807 1-737): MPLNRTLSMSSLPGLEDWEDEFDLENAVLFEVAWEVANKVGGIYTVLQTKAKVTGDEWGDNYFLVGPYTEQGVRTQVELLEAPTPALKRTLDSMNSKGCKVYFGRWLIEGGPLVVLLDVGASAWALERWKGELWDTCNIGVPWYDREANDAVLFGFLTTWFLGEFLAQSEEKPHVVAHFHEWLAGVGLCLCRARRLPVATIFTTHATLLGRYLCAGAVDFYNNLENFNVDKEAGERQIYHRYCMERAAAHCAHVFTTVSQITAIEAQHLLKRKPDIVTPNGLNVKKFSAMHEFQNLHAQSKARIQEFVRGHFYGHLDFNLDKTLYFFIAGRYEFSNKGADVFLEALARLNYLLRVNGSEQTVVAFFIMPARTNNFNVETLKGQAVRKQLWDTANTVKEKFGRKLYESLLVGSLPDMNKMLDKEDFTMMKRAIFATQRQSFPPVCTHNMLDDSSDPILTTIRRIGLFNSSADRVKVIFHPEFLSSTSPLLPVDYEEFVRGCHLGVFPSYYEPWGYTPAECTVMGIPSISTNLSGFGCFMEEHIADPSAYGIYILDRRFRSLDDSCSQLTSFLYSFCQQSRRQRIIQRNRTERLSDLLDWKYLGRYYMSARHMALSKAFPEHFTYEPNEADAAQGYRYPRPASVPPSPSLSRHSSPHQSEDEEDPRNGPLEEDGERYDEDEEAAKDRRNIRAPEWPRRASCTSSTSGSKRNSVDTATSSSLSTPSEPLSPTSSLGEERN
Method: The reaction was carried out in 96-well plates containing 50 μl of reaction volume (50 mM Tris, pH8, 20 mM EDTA, 25 mM KF, 2 mg/ml glycogen, 10 mM Glucose-6-Phosphate, 1.65 mM UDP[14C]glucose and 100 mM UDP-glucose). To test the inhibitory effect of the hits, each one was included in the reaction at a final concentration of 50 μM. The reaction was initiated with the addition of 20 nM recombinant human GS1, followed by incubation at 37° C. for 30 min. The reaction was then stopped with the addition of 100 μl cold 100% ethanol, and the total suspension was transferred into a 96-well filter plate. Vacuum was applied to remove the ethanol. Five washing steps with 150 μl of cold 66% ethanol then fully removed any non-incorporated UDP[14C]glucose, while the labelled glycogen stayed on the well filters. The plate was dried at 37° C. incubator for 30 min. 50 μl of scintillation fluid was added to each well and the plate was read for 14C signal on Microplate scintillation and luminescence counter Top Count (Perkin Elmer).

[3] = treated from 4 months of age (2 months before onset), two way ANOVA with repeated measures
[4] = treated from 4 months of age, Bonferroni's multiple comparisons test
[5] = treated from 6 months of age (at onset), two way ANOVA with repeated measures
[6] = treated from 6 months of age, Bonferroni's multiple comparisons test

COCc1c(C(=O)N2[C@@H]3CC[C@H]2CN(C)C(=O)C3)noc1C (relative stereo) [UDP #19, (1S*,6R*)-9-{[4-(methoxymethyl)-5-methylisoxazol-3-yl]carbonyl}-3-methyl-3,9-diazabicyclo[4.2.1]nonan-4-one]
dose response of diastase resistant cell associated mean PAS intensity normalized by z-score [1]: concentration dependent | apathy, mobility and responsiveness to experimenter ([2]; 250 mg/kg, IV first month then subcutaneous): less apathic, more mobile and more responsive to intervention by the experimenter | ameliorating effect on motor parameters (summary) ([2]; 250 mg/kg, IV first month then subcutaneous, tested every two weeks): ameliorate grip strength | average duration in movement in an open field test vs vehicle [2, 3]: not different from vehicle (p<0.1) | average front paw grip strength vs vehicle [2, 3]: different from vehicle with p<0.055 | average gait length vs vehicle [2, 3]: not different from vehicle (p<0.1) | average gait width vs vehicle [2, 3]: not different from vehicle (p<0.1) | average latency to fall off a metal wire vs vehicle [2, 3]: not different from vehicle (p<0.1) | average latency to fall off a rotating cylinder (rotarod) vs vehicle [2, 3]: the latency to fall was shorter in treated animals (p<0.089) | average regularity of step distance (Coefficient of Variance of all R-R and L-L step distances) vs vehicle [2, 3]: not different from vehicle (p<0.1) | average uniformity of step alternation (|0.5-(R-L/R-R)|) vs vehicle [2, 3]: not different from vehicle (p<0.1) | extension reflex vs vehicle [2, 3]: not different from vehicle (p<0.1) | average duration in movement in an open field test vs vehicle [2, 4]: no significant difference | average front paw grip strength vs vehicle [2, 4]: no significant difference | average gait length vs vehicle [2, 4]: no significant difference | average gait width vs vehicle [2, 4]: no significant difference | average latency to fall off a metal wire vs vehicle [2, 4]: no significant difference | average latency to fall off a rotating cylinder (rotarod) vs vehicle [2, 4]: 57 days after treatment initiation latency to fall was lower in treated mice as compared to vehicle control (p<0.05) | average regularity of step distance vs vehicle [2, 4]: no significant difference | average uniformity of step alternation vs vehicle [2, 4]: no significant difference | extension reflex vs vehicle [2, 4]: no significant difference | average duration in movement in an open field test vs vehicle [2, 5]: not different from vehicle (p<0.1) | average front paw grip strength vs vehicle [2, 5]: different from vehicle with p<0.1 | average gait length vs vehicle [2, 5]: not different from vehicle (p<0.1) | average gait width vs vehicle [2, 5]: not different from vehicle (p<0.1) | average latency to fall off a metal wire vs vehicle [2, 5]: not different from vehicle (p<0.1) | average latency to fall off a rotating cylinder (rotarod) vs vehicle [2, 5]: the latency to fall was shorter in treated animals (p<0.089) | average regularity of step distance vs vehicle [2, 5]: not different from vehicle (p<0.1) | average uniformity of step alternation (|0.5-(R-L/R-R)|) vs vehicle [2, 5]: not different from vehicle (p<0.1) | extension reflex vs vehicle [2, 5]: not different from vehicle (p<0.1) | average duration in movement in an open field test vs vehicle [2, 6]: no significant difference | average front paw grip strength vs vehicle [2, 6]: no significant difference | average gait length vs vehicle [2, 6]: no significant difference | average gait width vs vehicle [2, 6]: no significant difference | average latency to fall off a metal wire vs vehicle [2, 6]: no significant difference | average latency to fall off a rotating cylinder (rotarod) vs vehicle [2, 6]: no significant difference | average regularity of step distance vs vehicle [2, 6]: no significant difference | average uniformity of step alternation vs vehicle [2, 6]: a significant difference (p<0.05) between vehicle and treatment at 53 days after treatment initiation | extension reflex vs vehicle [2, 6]: no significant difference | effect on GS activity (direction of change) (recombinant human GS1): increasing
